Measured values from patent US11873290B2, “Pyridazinone compounds and uses thereof” (Edgewise Therapeutics, Inc., priority 2018, dated 2024).

Molecular target: skeletal myofibrils (myosin ATPase activity)
Assay: Skeletal Myofibril ATPase Assay
Assay type: biochemical
Conditions: PK-LDH coupled, absorbance at 340 nm
Method: Overview: Myosin ATPase activity is assessed by using a coupled reaction system, in which ADP generated by the myosin ATPase function is coupled to the disappearance of NADH through the pyruvate kinase/lactate dehydrogenase (PK-LDH) system. Myosin ATPase activity produces ADP, which is used as a substrate for PK to produce pyruvate and regenerate ATP. The pyruvate is then used as a substrate by LDH to oxidize NADH to NAD+. The rate of the reaction is monitored through the time-dependent disappearance of NADH using absorbance at 340 nm. Inhibition of ATPase activity by the assayed compounds is indicated by a reduced rate of NADH loss, relative to vehicle-treated controls, over the experimental time window. To assess the selectivity of the assayed compounds for skeletal myofibrils, the compounds are counter-screened in cardiac myofibrils.
Materials: The following stock solutions and reagents were used in the Skeletal Myofibril ATPase Assay:
Stock Solutions of pCa buffer. Combine PIPES, CaCl2, and EGTA solutions with 70 mL of water. Adjust pH to 7.0 and bring final volume to 100 mL.
Skeletal Myofibril ATPase Assay Procedure: BSA, ATP, NADH, PEP, and DTT solutions were thawed at room temperature, then transferred to ice. Pellet-frozen myofibrils (approximately twice the required volume) were transferred into a sufficiently large tube and capped. Myofibrils were thawed by rolling in a water bath for approximately 15 min at room temperature and cooled on ice. Buffers A and B were prepared by adjusting volumes as necessary for required number of wells and stored on ice. 0.5 μL of the compounds to be assayed were added into wells of a 384-well plate. Buffers A and B were mixed by inversion immediately prior to use, then 25 μL of each was dispensed using a Multidrop dispenser (Buffer A first, then Buffer B). The absorbance within the wells was measured at 340 nm, using a kinetic protocol in which the wells are read every 1.5-2 min for 1 h. The reaction rate was qualitatively assessed by subtracting the minimum absorbance value from the maximum value for each well, using either the SoftMax Pro plate reader software or a spreadsheet program such as Excel. Using GraphPad Prism 8.0, the data was normalized, with 100% activity defined as the absorbance change in the 1% DMSO vehicle wells and 0% assigned to no change in absorbance over the course of the experiment. The normalized data were fit to a variable-slope four-parameter logistic model, constraining the bottom to be 0 or greater. Compounds of Table 1 to 4 were tested and results of the assay appear in Table 5 herein. A=IC50 is less than or equal to 10 μM; B=IC50 is greater than 10 μM and less than 100 μM; C=IC50 is greater than 100 μM; […].

| Structure (SMILES) | IC50 |
| --- | --- |
| O=c1ccc(-c2cnc(OCC(F)(F)F)nc2)nn1Cc1cnc(O)c(Cl)c1 [Compound 84, 2-((5-chloro-6-hydroxypyridin-3-yl)methyl)-6-(2-(2,2,2-trifluoroethoxy)pyrimidin-5-yl)pyridazin-3(2H)-one] | > 100 µM |
| O=c1ccc(-c2ccc(OC(F)F)cc2)nn1Cc1nnc(C2CC2)o1 [Compound 219] | 10 to 100 µM |
| Cc1cnc(Cn2nc(-c3ccc(OC(F)F)cc3)ccc2=O)[nH]1 [Compound 224, 6-(4-(difluoromethoxy)phenyl)-2-((5-methyl-1H-imidazol-2-yl)methyl)pyridazin-3(2H)-one] | > 100 µM |
| CC(C)(F)COc1ncc(-c2ccc(=O)n(Cc3cncc(F)c3)n2)cn1 [Compound 121, 6-(2-(2-fluoro-2-methylpropoxy)pyrimidin-5-yl)-2-((5-f1uoropyridin-3-yl)methyl)pyridazine-3(2H)-one] | < 10 µM |
| O=c1ccc(-c2ccc(NC34CC(C3)C4)nc2)nn1Cc1cccnc1 [Compound 71] | < 10 µM |
| O=c1ccc(-c2ccc(NC34CC(C3)C4)nc2)nn1Cc1cncc(F)c1 [Compound 72, 6-(6-(bicyclo[1.1.1]pentan-1-ylamino)pyridin-3-yl)-2-((5-fluoropyridin-3-yl)methyl)pyridazin-3(2H)-one] | < 10 µM |
| O=c1ccc(-c2cnc(OCC(F)(F)F)nc2)nn1Cc1cc[n+]([O-])cc1 [Compound 81, 4-((6-oxo-3-(2-(2,2,2-trifluoroethoxy)pyrimidin-5-yl)pyridazin-1(6H)-yl)methyl)pyridine 1-oxide] | > 100 µM |

Other lines, results leading:

| IC50 | Structure (SMILES) |
| --- | --- |
| < 10 µM | O=c1ccc(-c2cnc(OCC(F)(F)F)nc2)nn1Cc1cc(-c2ccccn2)no1 [Compound 30, 2-((3-(pyridin-2-yl)isoxazol-5-yl)methyl)-6-(2-(2,2,2-trifluoroethoxy)pyrimidin-5-yl)pyridazin-3(2H)-one] |
| < 10 µM | O=c1ccc(-c2ccc(OC(F)F)cc2)nn1Cc1nc2ccccc2o1 [Compound 203, 2-(benzo[d]oxazol-2-ylmethyl)-6-(4-(difluoromethoxy)phenyl) pyridazine-3(2H)-one] |
| < 10 µM | CC(C)Oc1ncc(-c2ccc(=O)n(Cc3cncc(F)c3)n2)cn1 [Compound 115, 2-((5-f1uoropyridin-3-yl)methyl)-6-(2-isopropoxypyrimidin-5-yl)pyridazine-3(2H)-one] |
| < 10 µM | O=c1ccc(-c2cnc(OCC(F)(F)F)nc2)nn1Cc1ccc2[nH]ncc2c1 [Compound 96, 2-((1H-indazol-5-yl)methyl)-6-(2-(2,2,2-trifluoroethoxy)pyrimidin-5-yl)pyridazin-3(2H)-one] |
| < 10 µM | COc1ccc(-c2ccc(=O)n(Cc3nc(-c4ccccc4)no3)n2)cc1 [Compound 309, 6-(4-methoxyphenyl)-2-((3-phenyl-1,2,4-oxadiazol-5-yl)methyl)pyridazin-3(2H)-one] |
| < 10 µM | O=c1ccc(-c2ccc(OC(F)F)cc2)nn1Cc1nc(C2CC2)cs1 [Compound 210, 2-((4-cyclopropylthiazol-2-yl)methyl)-6-(4-(difluoromethoxy)phenyl) pyridazine-3(2H)-one] |
| < 10 µM | CCOC(=O)c1cc(Cn2nc(-c3cnc(OCC(F)(F)F)nc3)ccc2=O)on1 [Compound 37, ethyl 5-((6-oxo-3-(2-(2,2,2-trifluoroethoxy)pyrimidin-5-yl)pyridazin-1(6H)-yl)methyl) isoxazole-3-carboxylate] |
| < 10 µM | O=c1ccc(-c2ccc(OCC(F)(F)F)cc2)nn1Cc1cncc(F)c1 [Compound 238, 2-((5-fluoropyridin-3-yl)methyl)-6-(4-(2,2,2-trifluoroethoxy)phenyl) pyridazin-3(2H)-one] |
| < 10 µM | Cc1cnoc1Cn1nc(-c2cnc(OCC(F)(F)F)nc2)ccc1=O [Compound 34, 2-((4-methylisoxazol-5-yl)methyl)-6-(2-(2,2,2-trifluoroethoxy)pyrimidin-5-yl)pyridazin-3(2H)-one] |
| < 10 µM | O=c1ccc(-c2cnc(OCC(F)F)nc2)nn1Cc1cncc(F)c1 [Compound 106, 6-(2-(2,2-difluoroethoxy)pyrimidin-5-yl)-2-((5-fluoropyridin-3-yl)methyl)pyridazine-3(2H)-one] |
